From patent USRE37770E1, “Treatment of skin conditions by use of PPARα activators” (The Regents of the University of California, priority 1997, dated 2002)

How the values were obtained:
transglutaminase mRNA [1] = experiment: Transglutaminase mRNA in keratinocytes by Northern Blot; format: cell-based, Human
Method: (§1) Human keratinocyte cells were incubated in culture containing calcium at a concentration of 0.03 mM Ca^++ (a level that is too low to induce differentiation). Also included in the culture medium were clofibrate at 400 μM or ETYA at 10 μM and 20 μM, while separate cell cultures were maintained as controls with neither clofibrate nor ETYA. The production of mRNA for both involucrin and transglutaminase was measured at intervals over a 48-hour time period (0, 6, 12, 24, and 48 hours) by Northern Blot analysis. In each case, the lighter bars represent the control cells and the darker bars the cells incubated in the clofibrate-containing medium. The degree of mRNA generated is expressed as a percent of the control at zero hours.
(§2) Human epidermis was isolated from newborn foreskins and keratinocytes were plated in serum-free keratinocyte growth medium (“KGM”; Clonetics, San Diego, Calif. USA), using conventional techniques. Cells were treated with either the test compounds in vehicle or vehicle alone (<0.1% ethanol) for 24 or 48 hours. The test compounds were obtained from Sigma Chemical Co. (St. Louis. Mo. USA) and were stored as 15 mM stock solutions at −20° C. Mevalonate was solubilized in sterile water.
(§3) Total RNA was isolated by using TRIZOL (Sigma Chemical Co.), following the manufacturer's protocol. Ethanol-precipitate RNA pellets were suspended in sterile, diethylpyrocarbonate (DEPC)-treated water, and RNA was quantified by absorbance at 260 nm using the 260/280 nm ratio as an index of purity. RNA (15 μg per sample) was size fractionated through a 1% agarose gel containing 2.2 M formaldehyde. RNA integrity was visualized following acridine orange staining of the gel following electrophoresis. The RNA was transfered to a nylon membrane that was subsequently baked at 80° C. for 2 hours. Blots were hybridized with the appropriate ^32p-labeled probe overnight at 65° C. Washes were then performed in a solution containing 0.1% SSC and 0.1% sodium dedecyl sulfate (SDS) for 20 minutes at room temperature, followed by a 20-minute wash at 65° C. Autoradiography was performed at −70° C. Blots were probed with β-actin to confirm equal loading. Appropriate bands were quantified by densitometry.
(§4) Northern blot analyses were performed on keratinocytes maintained in low calcium (0.03 mM) and incubated for 24 hours in the presence of vehicle alone (<0.1% ethanol) or vehicle containing 25-hydroxycholesterol (10 μM), 22(R)-hydroxycholesterol (10 μM) cholesterol (10 μM), or mevalonate (500 μM) (individually). The mRNA levels of involucrin (“INV”) and transglutaminase (“TG'ase”) are shown in the bar graph of FIG. 14a, the INV indicated by clear bars and the TG'ase by shaded bars, both with error limits shown.

[2] = tested on: Normal human keratinocytes; experiment: Cornified envelope formation (35S incorporation) in keratinocytes; format: cell-based; details: 48 hours; for Cornified Envelope Formation (% of Control): control = 0.03 mM Ca++ vehicle, mean ± SEM; for increase in cornified envelope (CE) formation: 10 μM
involucrin protein = experiment: Involucrin protein level in keratinocytes by Western Blot; format: cell-based, Human
Method: Measurements of the level of the involucrin protein itself were performed in the culture medium by Western Blot. Various incubations were performed, in media containing clofibrate at concentrations ranging from 0 (vehicle only) to 400 μM and calcium ion at both 0.03 mM and 1.2 mM. The results are shown in FIG. 9a for tests with calcium ion at 0.03 mM, and in FIG. 9b for tests with calcium ion at 1.2 mM. In these figures, the protein contents are expressed as percents of the respective measurements taken from media incubated for the same period of time but in the absence of clofibrate.
The procedures of Example 8 were followed, and measurements were taken on the involucrin protein levels from cells incubated at various concentrations of farnesol and juvenile hormone III ranging from 0 (vehicle only) to 15 μM, in media containing 0.03 mM and 1.2 mM calcium ion, for 24 hours. The results are shown in FIG. 10 for farnesol and FIG. 11 for juvenile hormone III, in 0.03 mM Ca^++.
Protein concentration was assessed by protein electrophoresis and Western blotting. Cells were lysed is 2% SDS and the lysate sonicated. Protein determinations were made by use of a Bicinchoninic add protein assay (Pierce Chemical Company, Rockford, Ill. USA). Following protein determination, equal amounts at protein (50 μg) were separated by electrophoresis an 7.5% polyacrylamide gels and electroblotted onto polyvinylidene […] membranes (0.2-μ, obtained from Bio-Rad Laboratories Hercules, Calif., USA). Involucrin protein was detected by incubation over-night at 4° C. C. with a polyclonal rabbit anti-human involucrin antibody (1:1000 dilution). The involucrin-specific bands on the autoradiograms were quantitated by densitometry by densitometry. Transglutaminase protein expression was measured in a similar mmaner, using stacking, sample and running buffers containing 4 M urea, and the gels following electrophoresis were washed in 4 M urea, 25 mM TRIS-HCl, pH 7.4, 7.5 mM NaCl, 0.1 mM dithiothreitol (DTT), and 2 mM ethylenediamine tetraacetic acid for 90 minutes prior to electoblotting, allowing the transglutaminase to be detected by antibody. Specific bands on the autoradiograms were quantified by densitometry.

[3] = tested on: full-thickness flank skin from the fetal rats; experiment: Transepidermal water loss (TEWL) of fetal rat skin explants in organ culture (barrier function); format: cell-based, Sprague-Dawley rats
Method: Timed pregnant Sprague-Dawley rats (plug date=day 0) were obtained from Simonsen (Gilroy, Calif., USA) and fetuses were delivered prematurely on day 17. Transepidermal water loss (TEWL) was measured in excised full-thickness flank skin from the fetal rats after various times in culture. The skin explants were placed dermis-side down onto collagen membrane inserts (3μ pore size) in medium M-199 (serum-free), and submerged, and the lateral edges and dermal surface were sealed with petrolatum, such that water loss occurred only through the epidermal surface. Explant samples were weighed hourly, at ambient temperature (24±3° C.) and humidity (40±5%), over 6 hours using a Cahn balance (sensitivity 0.001 mg). TEWL levels are reported as milligrams of water lost per square millimeter of epidermal surface per hour. Fatty acids and clofibrate (p-chlorophenoxyisobutyric acid) were added to the medium bound to 0.5% (weight/volume) bovine serum albumin (BSA). Isoprenoids and oxysterols were added in ethanol (≦0.1%) and juvenile hormone III was added as a dimethylsulfoxide (DMSO) solution (≦0.1%). Control explants were incubated in the presence of the appropriate vehicle (≦0.1% DMSO or ethanol, and/or ≦0.5% BSA). Skin explants from gestational day 17 rats were incubated in the presence of either various activators or vehicle, and transepidermal water loss was measured after two days. The activators and the concentrations at which they were used were as follows: […]

involucrin mRNA [4] = experiment: Involucrin mRNA in keratinocytes by Northern Blot; format: cell-based, Human
Method: as §1, §2, §3, §4

transglutaminase mRNA [5] = experiment: Transglutaminase mRNA in keratinocytes by Northern Blot; format: cell-based, Human; remark: listed apart in the source
involucrin mRNA [6] = experiment: Involucrin mRNA in keratinocytes by Northern Blot; format: cell-based, Human; remark: listed apart in the source
[7] = 24 hours, 0 to 400 μM, in either 0.03 mM or 1.2 mM Ca++
[8] = 1.2 mM Ca++, 400 μM, all time points relative to the controls
[9] = 10 μM alone, 24 hours (Example 17)
[10] = low calcium (0.03 mM), 24 hours, 10 μM
[11] = 10 μM in the presence of mevalonate (10 μM), 24 hours

CCOC(=O)C(C)(C)Oc1ccc(Cl)cc1 [clofibrate, 2-(4-chlorophenoxy)-2-methylpropanoic acid ethyl ester]
transglutaminase mRNA level (transglutaminase mRNA [1]; 0.03 mM Ca++, 400 μM, 0-48 hours, increase beginning at twelve hours): significantly increased levels | dose dependency of transglutaminase mRNA level (transglutaminase mRNA [1]; [7]): increase with increasing dosages | Cornified Envelope Formation (% of Control) ([2]; Calcium 0.03 mM, Clofibrate 50 μM): 121.4% ± 15.7 % of Control | Cornified Envelope Formation (% of Control) ([2]; Calcium 0.03 mM, Clofibrate 200 μM): 321.3% ± 30.4 % of Control | Cornified Envelope Formation (% of Control) ([2]; Calcium 0.03 mM, Clofibrate 400 μM): 386.8% ± 28.7 % of Control | Cornified Envelope Formation (% of Control) ([2]; Calcium 1.2 mM, Clofibrate 50 μM): 458.9% ± 39.8 % of Control | Cornified Envelope Formation (% of Control) ([2]; Calcium 1.2 mM, Clofibrate 200 μM): 529.3% ± 17.4 % of Control | Cornified Envelope Formation (% of Control) ([2]; Calcium 1.2 mM, Clofibrate 400 μM): 581.9% ± 28.7 % of Control | involucrin protein content (involucrin protein; 0 to 400 μM, calcium ion at both 0.03 mM and 1.2 mM): substantial increases in the protein content | EC50 ([3]; Rattus norvegicus, dose response, FIGS. 4a-4c, read-out: concentration of half-maximal effect on barrier development (TEWL)): ~250 µM | concentration of maximal effect on barrier development (TEWL) ([3]; dose response, FIGS. 4a-4c): approximately 500 μM | involucrin mRNA level (involucrin mRNA [4]; 0.03 mM Ca++, 400 μM, 0-48 hours, increase beginning at six hours): significantly increased levels | dose dependency of involucrin mRNA level (involucrin mRNA [4]; [7]): increase with increasing dosages | transglutaminase mRNA level (transglutaminase mRNA [5]; [8]): increased mRNA levels | involucrin mRNA level (involucrin mRNA [6]; [8]): increased mRNA levels

C[C@H](CCCC(C)(C)O)[C@H]1CC[C@H]2[C@@H]3CC=C4C[C@@H](O)CC[C@]4(C)[C@H]3CC[C@]12C [25-hydroxycholesterol]
TG'ase mRNA level (transglutaminase mRNA [1]; [9]): two-fold increase | transglutaminase (TG'ase) mRNA level compared to the vehicle alone (transglutaminase mRNA [1]; [10]): approximate twofold increase | increase in cornified envelope (CE) formation ([2]; high calcium (1.2 mM)): 1.75 fold | increase in cornified envelope (CE) formation ([2]; low calcium (0.03 mM)): 1.6 fold | increase in INV protein (involucrin protein; high calcium (1.2 mM), 15 μM): 3.2 fold | INV protein level relative to the control (involucrin protein; low calcium (0.03 mM), 24 hours): approximately 1.7 fold | effect on TEWL / barrier function ([3]; 50 μM, two days): neither mevalonate at 200 μM, 25-hydroxy cholesterol at 50 μM), squalene at 50 μM, geranylgeraniol at 50 μM, cis-farnesol at 50 μM, nor nerolidol at 100 μM significantly affected barrier function | INV mRNA level (involucrin mRNA [4]; [9]): two-fold increase | involucrin (INV) mRNA level compared to the vehicle alone (involucrin mRNA [4]; [10]): approximate twofold increase | TG'ase mRNA level (transglutaminase mRNA [5]; [11]): two-fold increase | INV mRNA level (involucrin mRNA [6]; [11]): two-fold increase
